Measurements taken from ChEMBL document CHEMBL1150368, “Detection of triplet repeat sequences in the double-stranded DNA using pyrene-functionalized pyrrole-imidazole polyamides with rigid linkers” (Bioorg Med Chem, 2008).

Assay: Binding affinity to biotinylated hairpin DNA by surface plasmon resonance assay

CC(=O)Nc1cn(C)c(C(=O)Nc2cc(C(=O)NCCC(=O)Nc3cn(C)c(C(=O)Nc4cc(C(=O)NCCCC(=O)Nc5cn(C)c(C(=O)Nc6cc(C(=O)NCCC(=O)Nc7cn(C)c(C(=O)Nc8cc(C(=O)NCCC(=O)NCCCN(C)C)n(C)c8)n7)n(CC#Cc7ccc8ccc9cccc%10ccc7c8c9%10)c6)n5)n(CC#Cc5ccc6ccc7cccc8ccc5c6c78)c4)n3)n(C)c2)n1
Kd: 837 nM
